Reference: patent US7511061B2, “Triazoles as farnesyl transferase inhibitors” (Janssen Pharmaceutica N.V., priority 1999, dated 2009)

Target: farnesyl protein transferase (FPTase) (Homo sapiens, UniProt P49354+P49356)
Assay: In vitro assay for inhibition of farnesyl protein transferase
Type: biochemical
Settings: test dose of 10^−7 M
Procedure: An in vitro assay for inhibition of farnesyl transferase was performed essentially as described in WO 98/40383, pages 33-34.

| Compound | inhibition at 0.1 µM |
| --- | --- |
| N#Cc1ccc(Cn2cnnc2CN(Cc2ccc(F)cc2F)C(=O)c2ccc(Br)s2)cc1 [compound 218] | ≥ 10% |
| Cc1ccc(C(=O)N(Cc2ccc(F)cc2F)Cc2nncn2Cc2ccc(C#N)cc2)cc1-c1cc(Cl)ccc1Cl [compound 221] | ≥ 10% |
| Cc1ccc(C(=O)N(Cc2ccc(F)cc2F)Cc2nncn2Cc2ccc(C#N)cc2)cc1-c1ccc(F)c(Cl)c1 [compound 224] | ≥ 10% |
| Cc1ccc(C)c(/C=C/C(=O)N(Cc2ccc(F)cc2F)Cc2nncn2Cc2ccc(C#N)cc2)c1 [compound 225] | ≥ 10% |
| N#Cc1ccc(Cn2cnnc2CN(Cc2cc(C(F)(F)F)cc(C(F)(F)F)c2)C(=O)c2ccc3ccccc3n2)cc1 [compound 226] | ≥ 10% |
| N#Cc1ccc(Cn2cnnc2CN(Cc2ccc(F)cc2F)C(=O)c2cccc(-c3cccc(C(F)(F)F)c3)c2)cc1 [compound 227] | ≥ 10% |
| Cc1cccc(Cc2nnc(CN(c3ccc(Oc4ccccc4)cc3)S(=O)(=O)c3ccc(-c4ccc(F)c(Cl)c4)cc3C)n2Cc2cccc(C)n2)n1 [compound 230] | ≥ 10% |
| N#Cc1ccc(Cn2cnnc2CN(Cc2ccc(F)cc2F)C(=O)/C=C/c2cccc(C(F)(F)F)c2)cc1 [compound 231] | ≥ 10% |
| N#Cc1ccc(Cn2cnnc2CN(Cc2ccccc2)C(=O)c2ccc3ccccc3n2)cc1 [compound 232] | ≥ 10% |
| N#Cc1ccc(Cn2cnnc2CN(Cc2c(F)cccc2F)c2ccc(Oc3ccccc3)cc2)cc1 [compound 234] | ≥ 10% |
| N#Cc1ccc(Cn2cnnc2CN(Cc2c(F)ccc(F)c2F)c2ccc(Oc3ccccc3)cc2)cc1 [compound 238] | ≥ 10% |
| N#Cc1ccc(Cn2cnnc2CN(Cc2ccc(F)cc2F)C(=O)c2cccc(-c3ccsc3)c2)cc1 [compound 239] | ≥ 10% |
| Cc1ccccc1-c1cccc(C(=O)N(Cc2ccc(F)cc2F)Cc2nncn2Cc2ccc(C#N)cc2)c1 [compound 242] | ≥ 10% |
| N#Cc1ccc(Cn2cnnc2CN(Cc2ccc(F)cc2F)C(=O)/C=C/c2cc(F)cc(C(F)(F)F)c2)cc1 [compound 245] | ≥ 10% |
| N#Cc1ccc(Cn2cnnc2CN(Cc2ccc(F)cc2F)C(=O)c2cccc(Cl)c2)cc1 [compound 246] | ≥ 10% |
| N#Cc1ccc(Cn2cnnc2CN(C(=O)c2ccc3ccccc3n2)c2ccc(N3CCOCC3)cc2)cc1 [compound 248] | ≥ 10% |

Continued, values first:

| inhibition at 0.1 µM | Compound |
| --- | --- |
| ≥ 10% | N#Cc1ccc(Cn2cnnc2CN(CCc2ccc(Br)cc2)C(=O)c2ccc(Br)o2)cc1 [compound 219] |
| ≥ 10% | COc1cc(C(=O)N(CCc2ccc(Br)cc2)Cc2nncn2Cc2ccc(C#N)cc2)nc2ccccc12 [compound 220] |
| ≥ 10% | N#Cc1ccc(Cn2cnnc2CN(CCc2ccc(Br)cc2)C(=O)c2cccc(Br)c2)cc1 [compound 222] |
| ≥ 10% | N#Cc1ccc(Cn2cnnc2CN(CCc2ccc(Br)cc2)C(=O)c2cc3ccccc3s2)cc1 [compound 223] |
| ≥ 10% | N#Cc1ccc(Cn2cnnc2CN(Cc2ccc(F)cc2F)C(=O)c2ccc(Br)o2)cc1 [compound 229] |
| ≥ 10% | Cc1ccc(C(=O)N(CCc2ccc(Br)cc2)Cc2nncn2Cc2ccc(C#N)cc2)cc1C [compound 233] |
| ≥ 10% | COc1ccc(CCN(Cc2nncn2Cc2ccc(C#N)cc2)C(=O)c2ccc3ccccc3n2)cc1 [compound 236] |
| ≥ 10% | COc1ccc2oc(C(=O)N(CCc3ccc(Br)cc3)Cc3nncn3Cc3ccc(C#N)cc3)cc2c1 [compound 237] |
| ≥ 10% | N#Cc1ccc(Cn2cnnc2CN(Cc2ccc(F)cc2F)C(=O)/C=C/c2cccc(Br)c2)cc1 [compound 241] |
| ≥ 10% | N#Cc1ccc(Cn2cnnc2CN(Cc2ccc(F)cc2F)C(=O)c2cccc(Br)c2)cc1 [compound 243] |
| ≥ 10% | N#Cc1ccc(Cn2cnnc2CN(CCc2ccc(Br)cc2)C(=O)c2ccc3c(c2)OCO3)cc1 [compound 244] |
| ≥ 10% | N#Cc1ccc(Cn2cnnc2CN(Cc2ccco2)C(=O)c2ccc3ccccc3n2)cc1 [compound 247] |
